Measurements taken from PubChem BioAssay AID284 (DTP/NCI, 2004).
Values joined by “and” are separate entries in the source; they are usually repeats but may differ in a detail not shown here. Equal entries are not always repeated. Inconclusive results and toxic doses are left out.

Test system: BDF1 mice, L1210/MTX-resistant leukemia ip, survival T/C
Assay: NCI In Vivo Anticancer Drug Screen. Data for tumor model L1210 Leukemia resistant to Methotrexate; NSC 740 (intraperitoneal) in B6D2F1 (BDF1) mice
Details: endpoint: mean survival time, higher = longer survival
Protocol: The antitumor activity of compounds was measured in mice bearing transplantable tumors. Survival or tumor size were measured and the results are expressed as the measurement made in the treated group (T) divided by the measurement made in the vehicle treated control group (C). The tumor model used in this assay is L1210 Leukemia resistant to Methotrexate; NSC 740 (intraperitoneal) in B6D2F1 (BDF1) mice

[1] = dose: 125.0 mg/kg/injection, schedule: Q01DX010 (ip), vehicle: saline
[2] = dose: 100.0 mg/kg/injection, schedule: Q01DX Z (ip), vehicle: saline
[3] = dose: 250.0 mg/kg/injection, schedule: Q01DX Z (ip), vehicle: saline
[4] = dose: 5.0 mg/kg/injection, schedule: Q01DX010 (ip), vehicle: saline
[5] = dose: 7.5 mg/kg/injection, schedule: Q01DX Z (ip), vehicle: carboxymethylcellulose (CMC)
[6] = dose: 10.0 mg/kg/injection, schedule: Q01DX010 (ip), vehicle: saline
[7] = dose: 15.0 mg/kg/injection, schedule: Q01DX Z (ip), vehicle: carboxymethylcellulose (CMC)
[8] = dose: 20.0 mg/kg/injection, schedule: Q01DX010 (ip), vehicle: saline
[9] = dose: 0.75 mg/kg/injection, schedule: Q01DX Z (ip), vehicle: carboxymethylcellulose (CMC)
[10] = dose: 10.0 mg/kg/injection, schedule: Q01DX Z (ip), vehicle: carboxymethylcellulose (CMC)
[11] = dose: 6.0 mg/kg/injection, schedule: Q01DX Z (ip), vehicle: carboxymethylcellulose (CMC)
[12] = dose: 8.0 mg/kg/injection, schedule: Q01DX Z (ip), vehicle: carboxymethylcellulose (CMC)

In the case of CCn1cnc2c(=S)nc[nH]c21, the T/C (dose: 12.0 mg/kg/injection, schedule: Q01DX Z (ip), vehicle: carboxymethylcellulose (CMC)) was 95 % of control, the T/C (dose: 15.6 mg/kg/injection, schedule: Q01DX010 (ip), vehicle: saline) was 102 % of control and the T/C (dose: 18.0 mg/kg/injection, schedule: Q01DX Z (ip), vehicle: carboxymethylcellulose (CMC)) was 98 % of control. The T/C (dose: 25.0 mg/kg/injection, schedule: Q01DX Z (ip), vehicle: carboxymethylcellulose (CMC)) was 121 % of control, the T/C (dose: 31.3 mg/kg/injection, schedule: Q01DX010 (ip), vehicle: saline) was 90 % of control and the T/C (dose: 37.0 mg/kg/injection, schedule: Q01DX Z (ip), vehicle: carboxymethylcellulose (CMC)) was 89 % of control. For the same compound, the T/C (dose: 100.0 mg/kg/injection, schedule: Q01DX Z (ip), vehicle: carboxymethylcellulose (CMC)) was 90 % of control and the T/C [1] was 90 % of control.
CN(N=O)C(=O)NC(C=O)C(O)C(O)C(O)CO (centres undefined) was tested, and the T/C (dose: 12.5 mg/kg/injection, schedule: Q01DX010 (ip), vehicle: saline) was 100 % of control, the T/C (dose: 50.0 mg/kg/injection, schedule: Q01DX Z (ip), vehicle: saline) was 106 % of control and the T/C (dose: 100.0 mg/kg/injection, schedule: Q01DX010 (ip), vehicle: saline) was 100 % of control. For the same compound, the T/C [2] was 97 % of control.
For O=P1(N(CCCl)CCCl)NCCCO1 (centres undefined), the T/C (dose: 11.3 mg/kg/injection, schedule: Q01DX010 (ip), vehicle: saline) was 100 % of control, the T/C (dose: 12.5 mg/kg/injection, schedule: Q01DX Z (ip), vehicle: saline) was 98 % of control and 103 % of control and the T/C (dose: 22.5 mg/kg/injection, schedule: Q01DX Z (ip), vehicle: saline) was 174 % of control. For the same compound, the T/C (dose: 45.0 mg/kg/injection, schedule: Q01DX010 (ip), vehicle: saline) was 152 % of control, the T/C (dose: 90.0 mg/kg/injection, schedule: Q01DX010 (ip), vehicle: saline) was 87 % of control and the T/C [2] was 88 % of control and 109 % of control. The T/C (dose: 200.0 mg/kg/injection, schedule: Q01DX Z (ip), vehicle: saline) was 88 % of control and 103 % of control.
With O=C1N(Cl)C(=O)C(c2ccc(Cl)cc2)(c2ccc(Cl)cc2)N1Cl the T/C (dose: 0.8 mg/kg/injection, schedule: Q01DX Z (ip), vehicle: methylcellulose (MC)) was 90 % of control, the T/C (dose: 1.6 mg/kg/injection, schedule: Q01DX Z (ip), vehicle: methylcellulose (MC)) was 90 % of control and the T/C (dose: 3.2 mg/kg/injection, schedule: Q01DX Z (ip), vehicle: methylcellulose (MC)) was 86 % of control and 98 % of control.
C[C@@H]1C[C@H]2CC[C@H](O2)[C@H](C)C(=O)O[C@@H](C)C[C@@H]2CC[C@@H](O2)[C@@H](C)C(=O)O[C@H](C)C[C@H]2CC[C@H](O2)[C@H](C)C(=O)O[C@@H](C)C[C@@H]2CC[C@@H](O2)[C@@H](C)C(=O)O1 was tested, and the T/C (dose: 100.0 mg/kg/injection, schedule: Q01DX Z (ip), vehicle: methylcellulose (MC)) was 89 % of control.
For Cc1c(O)ccc(=O)n1O, the T/C (dose: 49.0 mg/kg/injection, schedule: Q01DX Z (ip), vehicle: other) was 98 % of control, the T/C (dose: 73.0 mg/kg/injection, schedule: Q01DX Z (ip), vehicle: other) was 86 % of control and the T/C (dose: 110.0 mg/kg/injection, schedule: Q01DX Z (ip), vehicle: other) was 114 % of control. The T/C (dose: 165.0 mg/kg/injection, schedule: Q01DX Z (ip), vehicle: other) was 110 % of control and the T/C (dose: 247.0 mg/kg/injection, schedule: Q01DX Z (ip), vehicle: other) was 96 % of control.
For CN(Cc1cnc2nc(N)nc(N)c2n1)c1ccc(C(=O)N[C@@H](CCC(=O)O)C(=O)O)cc1, the T/C (dose: 0.19 mg/kg/injection, schedule: Q01DX010 (ip), vehicle: other) was 95 % of control, the T/C (dose: 0.38 mg/kg/injection, schedule: Q01DX010 (ip), vehicle: other) was 100 % of control and the T/C (dose: 0.75 mg/kg/injection, schedule: Q01DX010 (ip), vehicle: other) was 99 % of control. For the same compound, the T/C (dose: 0.75 mg/kg/injection, schedule: Q01DX Z (ip), vehicle: alkali diluted with saline) was 120 % of control and 92 % of control, the T/C (dose: 0.75 mg/kg/injection, schedule: Q01DX Z (ip), vehicle: saline) was 95 % of control and 106 % of control and the T/C (dose: 1.5 mg/kg/injection, schedule: Q01DX010 (ip), vehicle: other) was 100 % of control. The T/C (dose: 1.5 mg/kg/injection, schedule: Q01DX Z (ip), vehicle: alkali diluted with saline) was 117 % of control and 92 % of control, the T/C (dose: 1.5 mg/kg/injection, schedule: Q01DX Z (ip), vehicle: saline) was 94 % of control and 100 % of control and the T/C (dose: 3.0 mg/kg/injection, schedule: Q01DX Z (ip), vehicle: alkali diluted with saline) was 97 % of control. The T/C (dose: 3.0 mg/kg/injection, schedule: Q01DX Z (ip), vehicle: saline) was 87 % of control and 99 % of control and the T/C (dose: 4.0 mg/kg/injection, schedule: Q01DX Z (ip), vehicle: other) was 91 % of control and 95 % of control.
With CNC=O the T/C (dose: 125.0 mg/kg/injection, schedule: Q01DX Z (ip), vehicle: saline) was 117 % of control, the T/C (dose: 150.0 mg/kg/injection, schedule: Q01DX Z (ip), vehicle: saline) was 104 % of control and the T/C [3] was 111 % of control. The T/C (dose: 300.0 mg/kg/injection, schedule: Q01DX Z (ip), vehicle: saline) was 156 % of control and the T/C (dose: 500.0 mg/kg/injection, schedule: Q01DX Z (ip), vehicle: saline) was 112 % of control.
C[C@@H]1C[C@@H]([C@H](O)CC2CC(=O)NC(=O)C2)C(=O)[C@@H](C)C1 was tested, and the T/C [4] was 90 % of control and 105 % of control, the T/C [5] was 112 % of control and 96 % of control and the T/C [6] was 103 % of control. For the same compound, the T/C [7] was 92 % of control and 108 % of control, the T/C [8] was 97 % of control and the T/C (dose: 30.0 mg/kg/injection, schedule: Q01DX Z (ip), vehicle: carboxymethylcellulose (CMC)) was 114 % of control. The T/C (dose: 40.0 mg/kg/injection, schedule: Q01DX010 (ip), vehicle: saline) was 95 % of control and 97 % of control.
In the case of Nc1nc(=S)c2[nH]cnc2[nH]1, the T/C [9] was 97 % of control, the T/C (dose: 1.25 mg/kg/injection, schedule: Q01DX010 (ip), vehicle: saline) was 99 % of control and 106 % of control and the T/C (dose: 1.5 mg/kg/injection, schedule: Q01DX Z (ip), vehicle: carboxymethylcellulose (CMC)) was 88 % of control. For the same compound, the T/C (dose: 2.5 mg/kg/injection, schedule: Q01DX010 (ip), vehicle: saline) was 90 % of control, the T/C (dose: 2.5 mg/kg/injection, schedule: Q01DX Z (ip), vehicle: carboxymethylcellulose (CMC)) was 102 % of control and the T/C [4] was 92 % of control. For the same compound, the T/C (dose: 5.0 mg/kg/injection, schedule: Q01DX Z (ip), vehicle: carboxymethylcellulose (CMC)) was 107 % of control, the T/C [5] was 108 % of control and the T/C [10] was 98 % of control. For the same compound, the T/C [7] was 88 % of control.
In the case of CCOC(N)=O, the T/C (dose: 62.5 mg/kg/injection, schedule: Q01DX010 (ip), vehicle: saline) was 87 % of control, the T/C [1] was 98 % of control and the T/C (dose: 188.0 mg/kg/injection, schedule: Q01DX Z (ip), vehicle: saline) was 102 % of control. The T/C [3] was 91 % of control, the T/C (dose: 375.0 mg/kg/injection, schedule: Q01DX Z (ip), vehicle: saline) was 87 % of control and 99 % of control and the T/C (dose: 500.0 mg/kg/injection, schedule: Q01DX010 (ip), vehicle: saline) was 88 % of control. For the same compound, the T/C (dose: 750.0 mg/kg/injection, schedule: Q01DX Z (ip), vehicle: saline) was 93 % of control and the T/C (dose: 1500.0 mg/kg/injection, schedule: Q01DX Z (ip), vehicle: saline) was 100 % of control.
For Cc1cc(N(CCCl)CCCl)ccc1N=Nc1ccccc1C(=O)O, the T/C (dose: 0.37 mg/kg/injection, schedule: Q01DX Z (ip), vehicle: carboxymethylcellulose (CMC)) was 104 % of control, the T/C [9] was 124 % of control and the T/C (dose: 3.0 mg/kg/injection, schedule: Q01DX Z (ip), vehicle: carboxymethylcellulose (CMC)) was 94 % of control. The T/C (dose: 4.0 mg/kg/injection, schedule: Q01DX Z (ip), vehicle: carboxymethylcellulose (CMC)) was 109 % of control, the T/C [4] was 123 % of control and the T/C [11] was 124 % of control. The T/C [12] was 104 % of control, the T/C [6] was 107 % of control and the T/C [10] was 97 % of control. For the same compound, the T/C [8] was 88 % of control.
For S=P(N1CCOCC1)(N1CC1)N1CC1, the T/C (dose: 2.0 mg/kg/injection, schedule: Q01DX Z (ip), vehicle: carboxymethylcellulose (CMC)) was 92 % of control, the T/C [11] was 93 % of control and the T/C [12] was 92 % of control. For the same compound, the T/C [10] was 96 % of control and the T/C (dose: 20.0 mg/kg/injection, schedule: Q01DX Z (ip), vehicle: carboxymethylcellulose (CMC)) was 95 % of control.
